Laboratory results reported in patent publication US11279735B2, “Cyclic peptide antibiotics” (priority 2017, dated 2022).
Values after ≈ are worked out from the molar mass of the structure shown. *1 amine or outer side, *2 acyl side, *3 side chain or, on linkers, in order; H or OH if unused. Where a SMILES comes first, the peptide text is derived from it. [ ]: non-standard residue; d: D form. The star is where a group is joined. X13 = C[C@H](CO[C@H](CC1CC2(CCC2)C1)[C@@H](C)C(=O)[*:2])N[*:1]; X14 = CCCCCC[C@@H](OCCN[*:1])[C@@H](C)C(=O)[*:2]; Gly(cHept) = N[C@H](C(=O)O)C1CCCCCC1; aThr = C[C@H](O)[C@H](N)C(=O)O; NMeL = CN[C@@H](CC(C)C)C(=O)O; Chg = N[C@H](C(=O)O)C1CCCCC1; NMeNva = CCC[C@H](NC)C(=O)O; Dap = NC[C@H](N)C(=O)O; Propyl(3-NH2) = NCCC*; X20 = C1NCC1C*

These compounds were tested on Escherichia coli (E. coli) strain CFT073 ATCC 700928. Conditions: ATCC 700928, 22 h.
Assay type: cell-based
In short: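 MICs were read after 22 h at 35 °C, with bacteria added to a final OD600 of 0.0005. Compounds were serially diluted 2-fold over ten concentrations from a top of 64, 4, 0.5 or 0.13 μg/mL (protocols 1–4). Medium was cation-adjusted Mueller Hinton II broth plus 0.002% Tween-80, following CLSI M07-A8.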

MIC [µM] | Structure (SMILES)
12 (≈ 8.81 µg/mL) | CCC[C@H]1C(=O)N[C@@H](C2CCCCC2)C(=O)N[C@@H](CN)C(=O)N[C@@H](COCCCN)C(=O)N[C@H](C)CO[C@H](CC2CC3(CCC3)C2)[C@@H](C)C(=O)N1C [Example 157, (3R,6S,9S,12S,15S,18R,19R)-9-(Aminomethyl)-6-((3-aminopropoxy)methyl)-12-cyclohexyl-3,16,18-trimethyl-15-propyl-19-(spiro[3.3]heptan-2-ylmethyl)-1-oxa-4,7,10,13,16-pentaazacyclononadecane-5,8,11,14,17-pentaone] (cyclo([Chg][Dap]S(Propyl(3-NH2))[X13][NMeNva]))
25 (≈ 16.8 µg/mL) | CCC(F)CCC[C@H]1OC(=O)CNC(=O)[C@H]([C@H](C)O)NC(=O)[C@H](CN)NC(=O)[C@H]([C@H](C)CC)NC(=O)[C@H](CC(C)C)N(C)C(=O)[C@@H]1C (stereo partly drawn) [Example 122, (6S,9S,12S,15S,18R,19R)-9-(aminomethyl)-19-(4-fluorohexyl)-15-isobutyl-16,18-dimethyl-6-[(1S)-1-hydroxyethyl]-12-[(1R)-1-methylpropyl]-1-oxa-4,7,10,13,16-pentazacyclononadecane-2,5,8,11,14,17-hexone]
6.3 (≈ 4.79 µg/mL) | CCC[C@H]1C(=O)N[C@@H](C2CCCCCC2)C(=O)N[C@@H](CN)C(=O)N[C@@H](COCC2CNC2)C(=O)N[C@H](C)CO[C@H](CC2CC3(CCC3)C2)[C@@H](C)C(=O)N1C [Example 171, (3R,6S,9S,12S,15S,18R,19R)-9-(Aminomethyl)-6-((azetidin-3-ylmethoxy)methyl)-12-cycloheptyl-3,16,18-trimethyl-15-propyl-19-(spiro[3.3]heptan-2-ylmethyl)-1-oxa-4,7,10,13,16-pentaazacyclononadecane-5,8,11,14,17-pentaone] (cyclo([Dap]S(X20)[X13][NMeNva][Gly(cHept)]))

Continued, compound first:

Structure (SMILES) | MIC [µM]
CCC[C@H]1C(=O)N[C@@H](C2CCCCCC2)C(=O)N[C@@H](CN)C(=O)N[C@@H]([C@H](C)O)C(=O)NCC(=O)O[C@H](CC2CC3(CCC3)C2)[C@@H](C)C(=O)N1C [Example 84, (6S,9S,12S,15S,18R,19R)-9-(Aminomethyl)-12-cycloheptyl-6-((S)-1-hydroxyethyl)-16,18-dimethyl-15-propyl-19-(spiro[3.3]heptan-2-ylmethyl)-1-oxa-4,7,10,13,16-pentaazacyclononadecane-2,5,8,11,14,17-hexaone] | 0.78 (≈ 0.55 µg/mL)
CC(C)CCCCCC[C@H]1OC(=O)CNC(=O)[C@H]([C@H](C)O)NC(=O)[C@H](CN)NC(=O)[C@H](C2CCCCC2)NC(=O)[C@H](CC(C)C)N(C)C(=O)[C@@H]1C [Example 65, (6S,9S,12S,15S,18R,19R)-9-(Aminomethyl)-12-cyclohexyl-6-((S)-1-hydroxyethyl)-15-isobutyl-16,18-dimethyl-19-(7-methyloctyl)-1-oxa-4,7,10,13,16-pentaazacyclononadecane-2,5,8,11,14,17-hexaone] | 0.78 (≈ 0.564 µg/mL)
CCCCCCCCCC[C@H]1OC(=O)CNC(=O)[C@H](C(C)(C)O)NC(=O)[C@H](CO)NC(=O)[C@H]([C@@H](C)CC)NC(=O)[C@H](CC(C)C)N(C)C(=O)[C@@H]1C [Example 21, (6S,9S,12S,15S,18R,19R)-19-decyl-9-(hydroxymethyl)-6-(1-hydroxy-1-methyl-ethyl)-15-isobutyl-16,18-dimethyl-12-[(1S)-1-methylpropyl]-1-oxa-4,7,10,13,16-pentazacyclononadecane-2,5,8,11,14,17-hexone] | 50 (≈ 36.3 µg/mL)
CCC[C@H]1C(=O)N[C@@H](C2CCCCCC2)C(=O)N[C@@H](CN)C(=O)N[C@@H](CO[C@H]2C[C@H](N)C2)C(=O)NCC(=O)O[C@H](CCC2CC3CCC2C3)[C@@H](C)C(=O)N1C (stereo partly drawn) [Example 137, (6S,9S,12S,15S,18R,19R)-6-[(3-aminocyclobutoxy)methyl]-9-(aminomethyl)-12-cycloheptyl-16,18-dimethyl-19-(2-norbornan-2-ylethyl)-15-propyl-1-oxa-4,7,10,13,16-pentazacyclononadecane-2,5,8,11,14,17-hexone] | 0.78 (≈ 0.604 µg/mL)
CCCCCC[C@H]1OCCNC(=O)[C@H]([C@H](C)O)NC(=O)[C@H](CN)NC(=O)[C@H](C2CCCCC2)NC(=O)[C@H](CC(C)C)N(C)C(=O)[C@@H]1C [Example 115, (6S,9S,12S,15S,18R,19R)-9-(aminomethyl)-12-cyclohexyl-19-hexyl-15-isobutyl-16,18-dimethyl-6-[(1S)-1-hydroxyethyl]-1-oxa-4,7,10,13,16-pentazacyclononadecane-5,8,11,14,17-pentone] (cyclo([Chg][Dap][aThr][X14][NMeL])) | 8.7 (≈ 5.8 µg/mL)
CCCCCCCCCC[C@H]1OC(=O)CNC(=O)[C@H](CO)NC(=O)[C@H](CO)NC(=O)[C@H](C(CC)CC)NC(=O)[C@H](CC(C)C)N(C)C(=O)[C@@H]1C [Example 43, (6S,9S,12S,15S,18R,19R)-19-decyl-12-(1-ethylpropyl)-6,9-bis(hydroxymethyl)-15-isobutyl-16,18-dimethyl-1-oxa-4,7,10,13,16-pentazacyclononadecane-2,5,8,11,14,17-hexone] | 13 (≈ 9.26 µg/mL)
CCCCCCCCCC[C@H]1OC(=O)CNC(=O)[C@H]([C@H](C)O)NC(=O)[C@H](CN)NC(=O)[C@H](CCc2ccccc2)NC(=O)[C@H](CC(C)C)N(C)C(=O)[C@@H]1C [Example 46, (6S,9S,12S,15S,18R,19R)-9-(aminomethyl)-19-decyl-6-[(1S)-1-hydroxyethyl]-15-isobutyl-16,18-dimethyl-12-(2-phenylethyl)-1-oxa-4,7,10,13,16-pentazacyclononadecane-2,5,8,11,14,17-hexone] | 25 (≈ 19 µg/mL)
